Experimental data: US20100267561A1, “HERBICIDAL PYRIDAZINONE DERIVATIVES” (priority 2007, published 2010)

Columns and labels:
Format in all cases: in vivo
[1] = tested on: common (oilseed) sunflower (Helianthus annuus); assay: Test B pre-/postemergence plant response; settings: Preemergence
Summary of the method: (§1)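 Seeds were sown and sprayed preemergence, while plants at 2 to 18 cm (1- to 4-leaf stage) got postemergence sprays. Compounds were formulated in a non-phytotoxic solvent mixture with surfactant. After 13 to 15 days in a greenhouse, injury was rated visually against untreated controls, 0 (no effect) to 100 (complete control).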

corn (Zea mays) = assay: Test B pre-/postemergence plant response; settings: for Corn plant response rating: 8 g ai/ha
Summary of the method: as §1

[2] = tested on: downy bromegrass (Bromus tectorum); assay: Test B pre-/postemergence plant response; settings: for Bromegrass, Downy plant response rating: 8 g ai/ha
Summary of the method: as §1

[3] = tested on: green foxtail (Setaria viridis); assay: Test B pre-/postemergence plant response; settings: for Foxtail, Green plant response rating: 8 g ai/ha
Summary of the method: as §1

[4] = tested on: large crabgrass (Digitaria sanguinalis); assay: Test B pre-/postemergence plant response; settings: for Crabgrass, Large plant response rating: 8 g ai/ha
Summary of the method: as §1

[5] = tested on: morningglory (Ipomoea coccinea); assay: Test B pre-/postemergence plant response; settings: for Morningglory plant response rating: 8 g ai/ha
Summary of the method: as §1

[6] = tested on: surinam grass (Brachiaria decumbens); assay: Test B pre-/postemergence plant response; settings: for Surinam Grass plant response rating: 8 g ai/ha
Summary of the method: as §1

[7] = tested on: velvetleaf (Abutilon theophrasti); assay: Test B pre-/postemergence plant response; settings: for Velvetleaf plant response rating: 8 g ai/ha
Summary of the method: as §1

[8] = tested on: wheat (Triticum aestivum); assay: Test B pre-/postemergence plant response; settings: for Wheat plant response rating: 8 g ai/ha
Summary of the method: as §1

wild oat (Avena fatua) = assay: Test B pre-/postemergence plant response; settings: for Oat, Wild plant response rating: 8 g ai/ha
Summary of the method: as §1

[9] = tested on: barnyardgrass (Echinochloa crus-galli); assay: Test B flooded paddy test plant response; settings: Flood (flooded paddy test), scale 0 to 100, 0 no effect, 100 complete control
Summary of the method: (§2)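 Paddy-water application to 2-leaf plants in pots held under 3 cm of flooding; response is a 0–100 visual control rating against controls after 13 to 15 days, and a dash marks a missing result.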

[10] = tested on: ducksalad (Heteranthera limosa); assay: Test B flooded paddy test plant response; settings: Flood (flooded paddy test), scale 0 to 100, 0 no effect, 100 complete control
Summary of the method: as §2

rice (Oryza sativa) = assay: Test B flooded paddy test plant response; settings: Flood (flooded paddy test), scale 0 to 100, 0 no effect, 100 complete control
Summary of the method: as §2

[11] = tested on: umbrella sedge (Cyperus difformis); assay: Test B flooded paddy test plant response; settings: Flood (flooded paddy test), scale 0 to 100, 0 no effect, 100 complete control
Summary of the method: as §2

[12] = Postemergence, 16 g ai/ha, scale 0 to 100
[13] = Postemergence, 31 g ai/ha, scale 0 to 100, 0 no effect, 100 complete control
[14] = Preemergence, 16 g ai/ha, scale 0 to 100 (0 no effect, 100 complete control)
[15] = Preemergence, 31 g ai/ha, 0 to 100 scale, 0 no effect, 100 complete control
[16] = Preemergence, 62 g ai/ha, scale 0 to 100
[17] = Postemergence, 62 g ai/ha, scale 0 to 100

`CCc1cc(-c2ccc(F)cc2)nn1-c1c(O)cnn(C)c1=O` [Compound 25] was tested, and the “Plant response rating, Sunflower” value ([1]; 16 g ai/ha, scale 0 to 100 (0 no effect, 100 complete control)) was 0, the “Plant response rating, Sunflower” value ([1]; 31 g ai/ha, 0 to 100 scale, 0 no effect, 100 complete control) was 0 and the “Plant response rating, Sunflower” value ([1]; 62 g ai/ha, scale 0 to 100) was 0. The “Sunflower plant response rating” value ([1]; 8 g ai/ha, scale 0 to 100) was 0, the “Corn plant response rating” value (corn (Zea mays); postemergence, 0-100 scale) was 0 and the “Plant response rating, Corn” value (corn (Zea mays); [12]) was 50. For the same compound, the “Plant response rating, Corn” value (corn (Zea mays); [13]) was 95, the “Plant response rating, Corn” value (corn (Zea mays); [14]) was 5 and the “Plant response rating, Corn” value (corn (Zea mays); [15]) was 50. For the same compound, the “Plant response rating, Corn” value (corn (Zea mays); [16]) was 75, the “Corn plant response rating” value (corn (Zea mays); Preemergence, scale 0 to 100) was 0 and the “Bromegrass, Downy plant response rating” value ([2]; postemergence, 0-100 scale) was 0. The “Plant response rating, Bromegrass, Downy” value [2, 12] was 0, the “Plant response rating, Bromegrass, Downy” value [2, 13] was 10 and the “Plant response rating, Bromegrass, Downy” value [2, 17] was 15. For the same compound, the “Plant response rating, Bromegrass, Downy” value [2, 14] was 0, the “Plant response rating, Bromegrass, Downy” value [2, 15] was 0 and the “Plant response rating, Bromegrass, Downy” value [2, 16] was 0. The “Bromegrass, Downy plant response rating” value ([2]; Preemergence, scale 0 to 100) was 0, the “Foxtail, Green plant response rating” value ([3]; postemergence, 0-100 scale) was 55 and the “Plant response rating, Foxtail, Green” value [3, 12] was 70. The “Plant response rating, Foxtail, Green” value [3, 13] was 80, the “Plant response rating, Foxtail, Green” value [3, 17] was 98 and the “Plant response rating, Foxtail, Green” value [3, 14] was 98. For the same compound, the “Plant response rating, Foxtail, Green” value [3, 15] was 98, the “Plant response rating, Foxtail, Green” value [3, 16] was 98 and the “Foxtail, Green plant response rating” value ([3]; Preemergence, scale 0 to 100) was 50. For the same compound, the “Crabgrass, Large plant response rating” value ([4]; postemergence, 0-100 scale) was 5, the “Plant response rating, Crabgrass, Large” value [4, 12] was 60 and the “Plant response rating, Crabgrass, Large” value [4, 13] was 75. The “Plant response rating, Crabgrass, Large” value [4, 17] was 80, the “Plant response rating, Crabgrass, Large” value [4, 14] was 20 and the “Plant response rating, Crabgrass, Large” value [4, 15] was 60. For the same compound, the “Plant response rating, Crabgrass, Large” value [4, 16] was 80, the “Crabgrass, Large plant response rating” value ([4]; Preemergence, scale 0 to 100) was 0 and the “Morningglory plant response rating” value ([5]; postemergence, 0-100 scale) was 0. The “Plant response rating, Morningglory” value [5, 12] was 0, the “Plant response rating, Morningglory” value [5, 13] was 0 and the “Plant response rating, Morningglory” value [5, 17] was 20. For the same compound, the “Plant response rating, Morningglory” value [5, 14] was 0, the “Plant response rating, Morningglory” value [5, 15] was 0 and the “Plant response rating, Morningglory” value [5, 16] was 0. For the same compound, the “Morningglory plant response rating” value ([5]; Preemergence, scale 0 to 100) was 0, the “Surinam Grass plant response rating” value ([6]; postemergence, 0-100 scale) was 50 and the “Plant response rating, Surinam Grass” value [6, 12] was 60. For the same compound, the “Plant response rating, Surinam Grass” value [6, 13] was 95, the “Plant response rating, Surinam Grass” value [6, 17] was 100 and the “Plant response rating, Surinam Grass” value [6, 14] was 85. For the same compound, the “Plant response rating, Surinam Grass” value [6, 15] was 85, the “Plant response rating, Surinam Grass” value [6, 16] was 100 and the “Surinam Grass plant response rating” value ([6]; Preemergence, scale 0 to 100) was 50. For the same compound, the “Velvetleaf plant response rating” value ([7]; postemergence, 0-100 scale) was 0, the “Plant response rating, Velvetleaf” value [7, 12] was 0 and the “Plant response rating, Velvetleaf” value [7, 13] was 0. The “Plant response rating, Velvetleaf” value [7, 17] was 0, the “Plant response rating, Velvetleaf” value [7, 14] was 0 and the “Plant response rating, Velvetleaf” value [7, 15] was 0. The “Plant response rating, Velvetleaf” value [7, 16] was 0, the “Velvetleaf plant response rating” value ([7]; Preemergence, scale 0 to 100) was 0 and the “Wheat plant response rating” value ([8]; postemergence, 0-100 scale) was 0. The “Plant response rating, Wheat” value [8, 12] was 0, the “Plant response rating, Wheat” value [8, 13] was 0 and the “Plant response rating, Wheat” value [8, 17] was 0. The “Plant response rating, Wheat” value [8, 14] was 0, the “Plant response rating, Wheat” value [8, 15] was 0 and the “Plant response rating, Wheat” value [8, 16] was 15. For the same compound, the “Wheat plant response rating” value ([8]; Preemergence, scale 0 to 100) was 0, the “Oat, Wild plant response rating” value (wild oat (Avena fatua); postemergence, 0-100 scale) was 25 and the “Plant response rating, Oat, Wild” value (wild oat (Avena fatua); [12]) was 55. The “Plant response rating, Oat, Wild” value (wild oat (Avena fatua); [13]) was 70, the “Plant response rating, Oat, Wild” value (wild oat (Avena fatua); [17]) was 95 and the “Plant response rating, Oat, Wild” value (wild oat (Avena fatua); [14]) was 0. For the same compound, the “Plant response rating, Oat, Wild” value (wild oat (Avena fatua); [15]) was 0, the “Plant response rating, Oat, Wild” value (wild oat (Avena fatua); [16]) was 60 and the “Oat, Wild plant response rating” value (wild oat (Avena fatua); Preemergence, scale 0 to 100) was 0. For the same compound, the “Plant response rating, Barnyardgrass” value ([9]; 62 g ai/ha) was 0, the “Plant response rating, Barnyardgrass” value ([9]; 250 g ai/ha) was 0 and the “Plant response rating, Ducksalad” value ([10]; 62 g ai/ha) was 0. The “Plant response rating, Ducksalad” value ([10]; 250 g ai/ha) was 0, the “Plant response rating, Rice” value (rice (Oryza sativa); 62 g ai/ha) was 0 and the “Plant response rating, Rice” value (rice (Oryza sativa); 250 g ai/ha) was 0. The “Plant response rating, Sedge, Umbrella” value ([11]; 62 g ai/ha) was 0 and the “Plant response rating, Sedge, Umbrella” value ([11]; 250 g ai/ha) was 0.
